Reference: patent US11147801B2, “Methods of use for trisubstituted benzotriazole derivatives as dihydroorotate oxygenase inhibitors” (Aurigene Discovery Technologies Limited, priority 2017, dated 2021)

Experiments:
L1210 murine leukemia = settings: cited from earlier work
DHODH [1] = target: T1, DHODH (Homo sapiens (Human), UniProt Q02127); test: DHODH activity assay (coupled enzyme assay, DCIP reduction); assay type: biochemical; settings: read-out: DHODH inhibition activity, IC50 group
Description: The DHODH activity assay is a coupled enzyme assay in which oxidation of DHO and subsequent reduction of ubiquinone are stoichiometrically equivalent to the reduction of DCIP ([…]). The reduction of DCIP is accompanied by a loss of absorbance at 610 nm.
Buffer Preparation: 50 mM tris HCl, 150 mM KCl, and pH 8.0, 0.8% triton.
L-Dihydroorotic acid stock solution of 20 mM in buffer.
2, 6-Dichloroindophenol Sodium salt hydrate stock solution of 20 mM in buffer.
Decylubiquinone stock solution of 20 mM in buffer.
5 μL of Dimethyl sulfoxide or a compound of formula (I) in DMSO solution was added to the wells of a 96 well plate. Compounds of formula (I) were measured at 10 μM.
Protein along with buffer was added, so that the total volume including the DMSO was 87 μL. Compound and protein were incubated for half an hour at room temperature after mixing. 5 μL of 20 mM solution of L-Dihydroorotic acid, 5 μL of 2 mM solution of Decylubiquinone and 3 μL of 2 mM solution of 2, 6-Dichloroindophenol sodium salt hydrate were added to the above solution (total assay volume 100 μL). The mixture was stirred for 2 min and absorbance was recorded at every 10 min at 610 nanometers.
Percent inhibition is calculated as follows: […]
A 2 mM DMSO stock solution of the selected trisubstituted benzoimidazole and benzotriazole derivatives of formula (I) of the present invention to be examined was prepared. Subsequent ⅓rd dilutions were made.
5 μL of each stock of compound of formula (I) was used for each 100 μL assay. Therefore, 5 μL of the 2 mM stock provided 100 μL of 100 μM solution of compound of formula (I), when made up with buffer, protein and substrate. See also: Ulrich et al. (2001) Eur. J. Biochem.268, 1861-1868.
Target sequence in this assay (Q02127 whole entry): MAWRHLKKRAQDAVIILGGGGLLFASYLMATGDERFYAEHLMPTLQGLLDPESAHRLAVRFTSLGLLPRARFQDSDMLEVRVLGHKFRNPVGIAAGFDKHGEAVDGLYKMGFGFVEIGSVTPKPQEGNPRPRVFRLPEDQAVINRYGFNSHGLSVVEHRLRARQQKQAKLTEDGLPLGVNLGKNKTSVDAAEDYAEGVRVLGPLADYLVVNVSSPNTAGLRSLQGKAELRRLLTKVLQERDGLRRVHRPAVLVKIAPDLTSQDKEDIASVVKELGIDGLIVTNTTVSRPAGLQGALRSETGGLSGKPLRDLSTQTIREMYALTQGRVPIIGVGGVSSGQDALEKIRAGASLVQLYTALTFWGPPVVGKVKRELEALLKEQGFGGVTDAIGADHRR

Ramos cells = test: Ramos proliferation assay (XTT); assay type: cell-based; settings: Homo sapiens, 72 hrs; for inhibition at 30 µM: read-out: Maximum % Inhibition at 30 μM; for IC50: XTT; for inhibition at 10 µM: read-out: Maximum % Inhibition (at 10 μM)
Description: Cell proliferation assay is a sensitive method for quantification of viable cells in cytotoxicity or proliferation assay. The XTT (2,3-bis[2-Methoxy-4-nitro-5-sulfophenyl]-2 H-tetrazolium-5-carboxyanilide inner salt) system is a means of measuring the activity of living cells via mitochondrial dehydrogenases. Mitochondrial dehydrogenases of viable cells cleave the tetrazolium ring of XTT, yielding orange formazon crystals which are soluble in aqueous solutions. The XTT solution is potentiated by the addition of an electron coupling agent, phenazine methosulphate (PMS) to the reaction. The resulting orange colour is spectrophotometrically measured at 450 nm. An increase or decrease in cell numbers results in a concomitant change in the amount of formazon formed, indicating the degree of cytotoxicity caused by the test material.
Dissolve 17.7 g IMDM (Iscove's Modified Dulbecco's Medium) powder, 1.5 g sodium bicarbonate pH 7.2-7.4 in 1 L MiliQ water, add 1% Pencilin/ Streptomycin and 10% FBS.
Dissolve 10.6 g Ham's F12 powder, 1.5 g sodium bicarbonate pH 7.2-7.4 in 1 L MiliQ water, add 1% Penicillin/Streptomycin. DMSO used as vehicle.
Ramos cells were re-suspended to a density of 1×10^5 cells/ ml in complete IMDM medium. 95 μL of this cell suspension was added to the 96-well plate to seed ˜10,000 cells per well. The plates were incubated at 37° C. under a humidified atmosphere of 5% CO2 for ˜1 hour before compound addition.
Test compounds (Refer to Table 1) were dissolved in 100% DMSO to generate a 2/6/10/20 mM stock solution. A 200× concentration of the required final concentrations was prepared in DMSO. 10 μL of each concentration (200×) was then diluted in 90 μL of serum-free Ham's F12 medium to get an intermediate concentration of 20× in medium. The DMSO concentration in this step is 10% (Intermediate dilution). 5 μL of each intermediate dilution was then added in triplicates in the previously seeded 96-well plate. The final DMSO concentration was 0.5% in the experimental wells. Cells treated with 0.5% DMSO served as positive control. 100 μL, of complete IMDM medium served as media blank for data analysis. 200 μL, of 1× PBS was added in all corner wells of the assay plate. Plates were then incubated for 72 hrs in an incubator with 5% CO2 at 37° C.
On termination day, 100 μl of XTT solution (1 mg/ml XTT supplemented with 25 μM PMS in Ham's F12 medium) was added to each well. Plates were incubated for 2 hrs. The amount of formazon produced was determined by reading the absorbance of the plate using VICTOR X5 multilabel plate reader at wavelength of 450 nm. The IC50 values were determined as concentrations that reduced cell viability by 50% and the curve was plotted with GraphPad Prism 6.0.
Percent (%) Inhibition was calculated by normalizing DMSO control values to 100% using the formula: % Inhibition=[…](Abs450test compound−blank)/(Abs450positive control−blank)*100
Test compound contains cells, test compound, IMDM medium and 0.5% DMSO
Positive control contains cells, IMDM medium and 0.5% DMSO
Blank contains IMDM medium

DHODH [2] = target: T1, DHODH; settings: cited from earlier work
Target sequence in this assay (Q02127 whole entry, species assumed): as the sequence (Q02127 whole entry) above

| Structure (SMILES) | IC50 (DHODH [1]) | IC50 (Ramos cells) | Anticancer activity (L1210 murine leukemia) | inhibition at 30 µM (Ramos cells) | inhibition at 10 µM (Ramos cells) | Fold greater inhibitor of DHODH than of protein tyrosine kinase (DHODH [2]) |
| --- | --- | --- | --- | --- | --- | --- |
| Cc1c(-c2ccc(-c3ccccc3F)cc2)nc2ccc(F)cc2c1C(=O)O [Brequinar, 6-Fluoro-2-(2′-fluoro[1,1′-biphenyl]-4-yl)-3-methyl-4-quinolinecarboxylic acid] | – | – | exhibits an anticancer activity | – | – | – |
| Cn1nnc2cc(-c3ccc(-c4ccc(CN5CCOCC5)cc4)cc3)cc(C(=O)O)c21 [Compound 31, 1-methyl-5-(4′-(morpholinomethyl)-[1,1′-biphenyl]-4-yl)-1H-benzo[d][1,2,3]triazole-7-carboxylic acid] | > 1000 nM | 1350 nM | – | – | 81% | – |
| CC(=O)Nc1cccc(-c2ccc(-c3cc(C(=O)O)c4c(c3)nnn4C)cc2)c1 [Compound 32, 5-(3′-acetamido-[1,1′-biphenyl]-4-yl)-1-methyl-1H-benzo[d][1,2,3]triazole-7-carboxylic acid] | > 1000 nM | 14600 nM | – | 74% | – | – |
| C/C(O)=C(\C#N)C(=O)Nc1ccc(C(F)(F)F)cc1 [Teriflunomide] | – | – | – | – | – | 100-1,000 fold |

More lines, main results first:

| IC50 (DHODH [1]) | IC50 (Ramos cells) | Structure (SMILES) | Anticancer activity (L1210 murine leukemia) | inhibition at 30 µM (Ramos cells) | inhibition at 10 µM (Ramos cells) | Fold greater inhibitor of DHODH than of protein tyrosine kinase (DHODH [2]) |
| --- | --- | --- | --- | --- | --- | --- |
| 101 to 1000 nM | 8970 nM | CN1CCN(Cc2ccccc2-c2ccc(C3=CC4N=NN(C)C4C(C(=O)O)=C3)cc2)CC1 (stereo not shown) [Compound 29, 1-methyl-5-(2′-((4-methylpiperazin-1-yl)methyl)-[1,1′-biphenyl]-4-yl)-3a,7a-dihydro-1H-benzo[d][1,2,3]triazole-7-carboxylic acid] | – | 81% | – | – |
| > 1000 nM | – | CN1CCN(Cc2ccccc2-c2ccc(-c3cc(C(=O)O)c4nn(C)nc4c3)cc2)CC1 [Compound 30, 2-methyl-6-(2′-((4-methylpiperazin-1-yl)methyl)-[1,1′-biphenyl]-4-yl)-2H-benzo[d][1,2,3]triazole-4-carboxylic acid] | – | 56% | – | – |
| 101 to 1000 nM | 675 nM | Cn1nnc2cc(-c3c(F)c(F)c(-c4cccc(CN5CCCCC5)c4)c(F)c3F)cc(C(=O)O)c21 [Compound 34, 1-methyl-5-(2,3,5,6-tetrafluoro-3′-(piperidin-1-ylmethyl)-[1,1′-biphenyl]-4-yl)-1H-benzo[d][1,2,3]triazole-7-carboxylic acid.2,2,2-trifluoroacetic acid] | – | – | 111% | – |
| 101 to 1000 nM | 1600 nM | Cn1nc2cc(-c3c(F)c(F)c(-c4cccc(CN5CCCCC5)c4)c(F)c3F)cc(C(=O)O)c2n1 [Compound 38, 2-methyl-6-(2,3,5,6-tetrafluoro-3′-(piperidin-1-ylmethyl)-[1,1′-biphenyl]-4-yl)-2H-benzo[d][1,2,3]triazole-4-carboxylic acid] | – | 92% | – | – |
| 101 to 1000 nM | 1870 nM | Cn1nc2cc(-c3c(F)c(F)c(-c4cccc(CN5CCOCC5)c4)c(F)c3F)cc(C(=O)O)c2n1 [Compound 39, 2-methyl-6-(2,3,5,6-tetrafluoro-3′-(morpholinomethyl)-[1,1′-biphenyl]-4-yl)-2H-benzo[d][1,2,3]triazole-4-carboxylic acid] | – | 96% | – | – |
| 101 to 1000 nM | 11800 nM | CN(C)Cc1cccc(-c2c(F)c(F)c(-c3cc(C(=O)O)c4c(c3)nnn4C)c(F)c2F)c1 [Compound 40, 5-(3′-((dimethylamino)methyl)-2,3,5,6-tetrafluoro-[1,1′-biphenyl]-4-yl)-1-methyl-1H-benzo[d][1,2,3]triazole-7-carboxylic acid] | – | 84% | – | – |
